Measurements taken from US20240002401A1, “IMIDAZOTHIAZOLE COMPOUNDS, PHARMACEUTICAL COMPOSITIONS, AND USES THEREOF” (GUANGZHOU HENOVCOM BIOSCIENCE CO., LTD., priority 2020, published 2024).

Experiments:
[1] = Pharmacokinetics test in mice; format: in vivo; conditions: male SD mice; for F: absolute bioavailability, oral 5 mg/kg vs intravenous 1 mg/kg; for AUC / half-life: mouse, plasma
Source text: Pharmacokinetics Test in Mice
Male SD mice were selected for pharmacokinetics test study, plasma concentration at different time points were quantitatively determined by LC/MS/MS method after the mice were intravenously injected and orally administrated with the compounds to be tested, thereby evaluating pharmacokinetics characteristic of the compounds to be tested in SD mice.
SD mice (free food and drink, 6 to 8 weeks old) were intravenously administrated via a foot injection with a clear solution of the compounds to be tested, alternatively, SD mice (free food and drink, 6 to 8 week old) were intragastrically administrated with a suspension of the compounds to be tested. Blood samples were collected from the tail veins of the mice 0.083, 0.25, 0.5, 1, 2, 4, 6, 8, 10, and 24 hours after administration, and each sampling was 0.15 mL. All collected blood samples were placed into centrifuge tubes with EDTA-K2, turned upside and down to mix the anticoagulant with the blood well. The plasma was separated by centrifugation at 1500 g for 10 min at 4° C. within […]. The plasma sample was transferred into a new centrifuge tube and stored at −90° C. to −60° C. until the analysis was performed. LC-MS/MS was used to measure the blood concentration of the compounds to be tested of the present disclosure, and the pharmacokinetic parameters, as well as absolute bioavailability, were calculated by a non-compartment model in Pharsight Phoenix 8.0 software, as shown in Table 2.

[2] = molecular target: ATX (Homo sapiens, UniProt Q13822); experiment: Enzyme activity screening in vitro with LPC as substrate (Amplex Red fluorescence); format: biochemical; conditions: inhibitory activity against ATX
Source text: Analysis In Vitro: LPC was Used as Substrate for Screening Enzyme Activity
Principle: Lysophosphatidylcholine (LPC) as substrate is hydrolyzed by using the activity of lysoPLD enzyme, to produce lysophosphatidic acid (LPA) and choline, which is oxidized to produce H2O2 under the action of choline oxidase. In presence of horse radish peroxidase (HPR), Amplex Red reagent is reacted with H2O2 in a quantitative chemistry ratio of 1 to 1, to produce strong fluorescence products, which are detected by a fluorescent quantitative test.
20 μl of the above mixed solution 1 was added to each hole of an experiment board, […]. The compounds diluted with DMSO were transferred into an experiment board with Echo550. The reaction buffer solution was used for preparing a mixed solution 2 of […] LPC and 400 μM Amplex Red in a final concentration. 20 μl of the above mixed solution 2 was added to each hole of the experiment board. After addition, the experiment board was shook for 30 seconds on a shaker, and incubated for 30 minutes. Envision was used to read the fluorescence signals with an exciting light at 530 nm and emitted light at 590 nm.

[3] = Intravenous injection (1 mg/kg)

SMILES	F [1]	AUC [1, 3]	half-life [1, 3]	AUC ([1]; Oral administration (5 mg/kg))	half-life ([1]; Oral administration (5 mg/kg))	IC50 [2]
CCc1nc2sc(C3CCN(CC(=O)NCC(F)F)CC3)cn2c1N(CC)c1nc(-c2ccc(F)cc2)c(C#N)s1 [Embodiment 11, 2-(4-(5-((5-cyano-4-(4-fluorophenyl)thiazol-2-yl)(ethyl)amino)-6-ethylimidazo[2,1-b]thiazol-2-yl)piperidin-1-yl)-N-(2,2-difluoroethyl)acetamide]	42%	907 ng·h/mL	4.69 h	1730 ng·h/mL	4.4 h	0.01 to 100 nM
CCc1nc2sc(C3CCN(CC(=O)NC4COC4)CC3)cn2c1N(CC)c1nc(-c2ccc(F)cc2)c(C#N)s1 [Embodiment 21, 2-(4-(5-((5-cyano-4-(4-fluorophenyl)thiazol-2-yl)(ethyl)amino)-6-ethylimidazo[2,1-b]thiazol-2-yl)piperidin-1-yl)-N-(3-oxacyclobutyl)acetamide]	114%	1040 ng·h/mL	3.32 h	5500 ng·h/mL	2.61 h	0.01 to 100 nM
CCc1nc2sc(C3CCN(CC(=O)N4CCOCC4)CC3)cn2c1N(CC)c1nc(-c2ccc(F)cc2)c(C#N)s1 [Embodiment 22, 2-(ethyl(6-ethyl-2-(1-(2-morpholino-2-oxoethyl)piperidin-4-yl)imidazo[2,1-b]thiazol-5-yl)amino)-4-(4-fluorophenyl)thiazole-5-carbonitrile]	39%	649 ng·h/mL	4.56 h	1260 ng·h/mL	4.19 h	0.01 to 100 nM

The next lines start with the values.

F [1]	AUC [1, 3]	half-life [1, 3]	AUC ([1]; Oral administration (5 mg/kg))	half-life ([1]; Oral administration (5 mg/kg))	IC50 [2]	SMILES
70%	1180 ng·h/mL	4.18 h	4190 ng·h/mL	3.93 h	0.01 to 100 nM	CCc1nc2sc(C3CCN(CC(=O)NC4CCOCC4)CC3)cn2c1N(CC)c1nc(-c2ccc(F)cc2)c(C#N)s1 [Embodiment 23, 2-(4-(5-((5-cyano-4-(4-fluorophenyl)thiazol-2-yl)(ethyl)amino)-6-ethylimidazo[2,1-b]thiazol-2-yl)piperidin-1-yl)-N-(tetrahydro-2H-pyran-4-yl)acetamide]
43%	1170 ng·h/mL	2.14 h	2520 ng·h/mL	2.23 h	100 to 500 nM	CCc1nc2sc(C3CCN(CC(=O)N4CC(O)C4)CC3)cn2c1N(c1nc(-c2ccc(F)cc2)c(C#N)s1)C1CC1 [Embodiment 24, 2-(cyclopropyl(6-ethyl-2-(1-(2-(3-hydroxyazetidin-1-yl)-2-oxoethyl)piperidin-4-yl)imidazo[2,1-b]thiazol-5-yl)amino)-4-(4-fluorophenyl)thiazole-5-carbonitrile]
55%	732 ng·h/mL	3.11 h	1900 ng·h/mL	3.83 h	0.01 to 100 nM	CCc1nc2sc(C3CCN(CC(=O)N4CC(O)C4)CC3)cn2c1N(c1nc(-c2ccc(F)cc2)c(C#N)s1)C(C)C [Embodiment 25, 2-((6-ethyl-2-(1-(2-(3-hydroxyazetidin-1-yl)-2-oxoethyl)piperidin-4-yl)imidazo[2,1-b]thiazol-5-yl)(isopropyl)amino)-4-(4-fluorophenyl)thiazole-5-carbonitrile]
